This note sets out measurements from PubChem BioAssay AID1963864 (Molecular Pharmacology Branch, DTP, NCI, 2024).

This test relates to KRAS PDC multicell spheroid viability. Put plainly: Anticancer human tumor 521955-158-R6-J3-PDC patient-derived pancreatic carcinoma cell line growth inhibition [KRAS2]. To be noted: for viability, T/C: stronger effect = lower value. The method, boiled down: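 KRAS-mutant tumor cells were grown as spheroids with HUVEC endothelial cells and human MSCs as stroma. Targeted agents were tested alone and with KRAS pathway inhibitors. Doses started at or near clinical Cmax, or 10 microM, descending half-log.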

Setting [1] is: curve of first compound, second compound 0.1 µM.
Where [2] appears, read: curve of first compound, second compound 0.316 µM.
Where [3] appears, read: curve of first compound, second compound 1 µM.
The mark [4] stands for this setting: curve of first compound, second compound 3.16 µM.
Setting [5] is: curve of first compound, second compound 10 µM.
The mark [6] stands for this setting: second compound 0.1 µM, first compound 0.0316 µM.
[7] abbreviates: second compound 0.1 µM, first compound 0.1 µM.
[8] abbreviates: second compound 0.1 µM, first compound 0.316 µM.
The mark [9] stands for this setting: second compound 0.1 µM, first compound 1 µM.
Setting [10] is: second compound 0.1 µM, first compound 3.16 µM.
Where [11] appears, read: second compound 0.316 µM, first compound 0.0316 µM.
The mark [12] stands for this setting: second compound 0.316 µM, first compound 0.1 µM.
Where [13] appears, read: second compound 0.316 µM, first compound 0.316 µM.
Where [14] appears, read: second compound 0.316 µM, first compound 1 µM.
[15] abbreviates: second compound 0.316 µM, first compound 3.16 µM.
Where [16] appears, read: second compound 1 µM, first compound 0.0316 µM.
[17] abbreviates: second compound 1 µM, first compound 0.1 µM.
The mark [18] stands for this setting: second compound 1 µM, first compound 0.316 µM.
The mark [19] stands for this setting: second compound 1 µM, first compound 1 µM.
Setting [20] is: second compound 1 µM, first compound 3.16 µM.
Setting [21] is: second compound 3.16 µM, first compound 0.0316 µM.
[22] abbreviates: second compound 3.16 µM, first compound 0.1 µM.
The mark [23] stands for this setting: second compound 3.16 µM, first compound 0.316 µM.
Where [24] appears, read: second compound 3.16 µM, first compound 1 µM.
Setting [25] is: second compound 3.16 µM, first compound 3.16 µM.
Where [26] appears, read: second compound 10 µM, first compound 0.0316 µM.
[27] abbreviates: second compound 10 µM, first compound 0.1 µM.
[28] abbreviates: second compound 10 µM, first compound 0.316 µM.
Setting [29] is: second compound 10 µM, first compound 1 µM.
[30] abbreviates: second compound 10 µM, first compound 3.16 µM.
Setting [31] is: second compound 0.1 µM, first compound 0.01 µM.
Setting [32] is: second compound 0.316 µM, first compound 0.01 µM.
Setting [33] is: second compound 1 µM, first compound 0.01 µM.
[34] abbreviates: second compound 3.16 µM, first compound 0.01 µM.
Where [35] appears, read: second compound 10 µM, first compound 0.01 µM.

The structures appear in SMILES notation. Several values for one entry are separate records, joined by “and”; a condition that tells them apart may be missing. Equal entries are not always repeated.
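Note: drug exposure lasted seven days.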
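Throughout, for viability, T/C: 100% = DMSO vehicle wells and lower means fewer viable cells.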

Turning to `CN(C)C/C=C/C(=O)Nc1cc2c(Nc3ccc(F)c(Cl)c3)ncnc2cc1O[C@H]1CCOC1`, the viability, T/C (as a rule, the result in the treated group divided by that in the control group, in per cent) is 93.6% [middle of 5 runs] (compound 0.000316 µM); 82.4% [middle of 5 runs] (compound 0.001 µM); 81.6% [middle of 5 runs] (compound 0.00316 µM); 68.3% [middle of 5 runs] (compound 0.01 µM); 62.6% [middle of 5 runs] (compound 0.0316 µM); 63.5% [middle of 5 runs] (compound 0.1 µM). Also, the IC50 (in general, the concentration at which inhibition is half-maximal) (curve of compound) was more than 0.1 µM.

Regarding `CC(C)n1nc(-c2ccc3oc(N)nc3c2)c2c(N)ncnc21`, the viability, T/C is 91.3% [middle of 5 runs] (compound 0.000316 µM); 91.3% [middle of 5 runs] (compound 0.001 µM); 82.9% [middle of 5 runs] (compound 0.00316 µM); 74.3% [middle of 5 runs] (compound 0.01 µM); 67.2% [middle of 5 runs] (compound 0.0316 µM); 50.7% [middle of 5 runs] (compound 0.1 µM). Besides, the IC50 (curve of compound) is > 0.1 µM and 0.0957 µM.

`CC(C)NCC(C(=O)N1CCN(c2ncnc3c2C(C)CC3O)CC1)c1ccc(Cl)cc1` (centres undefined) + COc1cc2nc(C)nc(NC(C)c3cc(N)cc(C(F)(F)F)c3)c2cc1OC1CCOC1: the IC50 was more than 10 µM under setting [1]; more than 10 µM under setting [2]; more than 10 µM under setting [3]; more than 10 µM under setting [4]; less than 0.0316 µM under setting [5]. Also, the viability, T/C is 96.1% under setting [6]; 90.2% under setting [7]; 76.1% under setting [8]; 84.9% under setting [9]; 72.8% under setting [10]; 71.8% (second compound 0.1 µM, first compound 10 µM). Further, the viability, T/C is, setting by setting: under setting [11], 83.8%; under setting [12], 79%; under setting [13], 75.7%; under setting [14], 70.3%; under setting [15], 77.7%; (second compound 0.316 µM, first compound 10 µM) 64.6%. Besides, the viability, T/C under setting [16] was 82.3%; the viability, T/C under setting [17] was 83.8%; the viability, T/C under setting [18] was 73.5%; the viability, T/C under setting [19] was 69.2%; the viability, T/C under setting [20] is 70.5%; the viability, T/C (second compound 1 µM, first compound 10 µM) is 59.6%. Also, the viability, T/C under setting [21] is 63.3%; the viability, T/C under setting [22] was 62.1%; the viability, T/C under setting [23] was 67.2%; the viability, T/C under setting [24] was 63.7%; the viability, T/C under setting [25] is 72.1%; the viability, T/C (second compound 3.16 µM, first compound 10 µM) was 67.7%. Also, the viability, T/C was 44.1% under setting [26]; 40.2% under setting [27]; 46.1% under setting [28]; 28.4% under setting [29]; 27.1% under setting [30]; 16.7% (second compound 10 µM, first compound 10 µM).

`CCNC(=O)CC1N=C(c2ccc(Cl)cc2)c2cc(OC)ccc2-n2c(C)nnc21` (centres undefined): the viability, T/C by setting is: (compound 0.0316 µM) 96.8% [middle of 5 runs]; (compound 0.1 µM) 90.3% [middle of 5 runs]; (compound 0.316 µM) 84.9% [middle of 5 runs]; (compound 3.16 µM) 79.8% [middle of 5 runs]; (compound 10 µM) 79.4% [middle of 5 runs]. Further, the IC50 (curve of compound) is more than 10 µM.

For `CC1COCCN1c1cc(-c2ccnn2C)c2ccnc(-c3ccn[nH]3)c2n1` (centres undefined) + COc1cc2nc(C)nc(NC(C)c3cc(N)cc(C(F)(F)F)c3)c2cc1OC1CCOC1, the IC50 under setting [1] is more than 3.16 µM; the IC50 under setting [2] was more than 3.16 µM; the IC50 under setting [3] was more than 3.16 µM; the IC50 under setting [4] is more than 3.16 µM; the concentration for half-maximal inhibition (IC50) under setting [5] is less than 0.01 µM. Also, the viability, T/C was 100% under setting [31]; 85.4% under setting [6]; 71.3% under setting [7]; 78.3% under setting [8]; 65.5% under setting [9]; 80.4% under setting [10]. Besides, the viability, T/C is, setting by setting: under setting [32], 82.8%; under setting [11], 79.6%; under setting [12], 79.1%; under setting [13], 71%; under setting [14], 64.4%; under setting [15], 75.3%. Besides, the viability, T/C by setting is: under setting [33], 88.5%; under setting [16], 78.2%; under setting [17], 78.3%; under setting [18], 68.6%; under setting [19], 66.8%; under setting [20], 74.8%. Moreover, the viability, T/C is 77.6% under setting [34]; 71.6% under setting [21]; 62.4% under setting [22]; 54.6% under setting [23]; 64.3% under setting [24]; 59.1% under setting [25]. Also, the viability, T/C runs as follows: under setting [35], 41.5%; under setting [26], 48.4%; under setting [27], 45.3%; under setting [28], 34.1%; under setting [29], 47.6%; under setting [30], 43.4%.

With `O=C(c1cc(Cc2n[nH]c(=O)c3ccccc23)ccc1F)N1CCN(C(=O)C2CC2)CC1`, the viability, T/C reads like this: (compound 0.0316 µM) 89.9% [middle of 5 runs]; (compound 0.316 µM) 86.2% [middle of 5 runs]; (compound 3.16 µM) 78.3% [middle of 5 runs]. The IC50 (curve of compound) is more than 10 µM.

As to `CCN1CCN(Cc2ccc(Nc3ncc(F)c(-c4cc(F)c5nc(C)n(C(C)C)c5c4)n3)nc2)CC1` + C=CC(=O)N1CCN(c2nc(=O)n(-c3c(C)ccnc3C(C)C)c3nc(-c4c(O)cccc4F)c(F)cc23)C(C)C1, the concentration for half-maximal inhibition (IC50) by setting is: under setting [1], more than 1 µM; under setting [2], more than 1 µM; under setting [3], more than 1 µM; under setting [4], more than 1 µM; under setting [5], more than 1 µM. In addition, the viability, T/C runs as follows: (second compound 0.1 µM, first compound 0.00316 µM) 102%; under setting [31], 88.8%; under setting [6], 86.1%; under setting [7], 74.2%; under setting [8], 83.6%; under setting [9], 97.6%. In addition, the viability, T/C is, setting by setting: (second compound 0.316 µM, first compound 0.00316 µM) 95.8%; under setting [32], 90.6%; under setting [11], 78.7%; under setting [12], 86%; under setting [13], 88.2%; under setting [14], 88.5%. Moreover, the viability, T/C is, setting by setting: (second compound 1 µM, first compound 0.00316 µM) 111%; under setting [33], 91.9%; under setting [16], 111%; under setting [17], 94.3%; under setting [18], 85.6%; under setting [19], 125%. For the same compound, the viability, T/C by setting is: (second compound 3.16 µM, first compound 0.00316 µM) 87.6%; under setting [34], 89.4%; under setting [21], 101%; under setting [22], 90.3%; under setting [23], 109%; under setting [24], 114%. In addition, the viability, T/C by setting is: (second compound 10 µM, first compound 0.00316 µM) 63.2%; under setting [35], 73.2%; under setting [26], 75.3%; under setting [27], 70.4%; under setting [28], 85.5%; under setting [29], 114%.
